These results are taken from patent US6320051A, “Quinolones used as MRS inhibitors and bactericides” (SmithKline Beecham plc, priority 1998, dated 2001).

The subject of assay [1] is S. aureus, S. pneunmoniae, and E. faecalis. Nature of the assay: Antibacterial activity, standard MIC assay modified by inclusion of cyclodextrin. The following applies: read-out: MIC against some strains of S. aureus, S. pneumoniae and E. faecalis. The format is cell-based. As to the method: (§1) Compounds of the present invention were assayed for antibacterial activity against a range of pathogenic organisms (strains of S aureus, S pneumoniae, E faecalis, H influenzae and M catarrhalis) in a standard MIC assay modified by the inclusion of cyclodextrin, to assist with solubility.

The next assay relates to M. Catarrhalis. The assay is described as above. The format is cell-based. The following applies: Moraxella catarrhalis; MIC assay with cyclodextrin; range over the listed Examples; read-out: MIC against M. Catarrhalis. As to the method: as §1
A further assay has as its system H. influenzae. Described as above. The format is cell-based. The settings on record: MIC assay with cyclodextrin. How it is done:
as §1

Assay [2] deals with isoleucyl t-RNA synthetase. The following applies: background of the invention; cited from earlier work.
[3] abbreviates: some strains of the organisms, MIC assay with cyclodextrin.

Converted amounts (≈) assume the structure as drawn. Structures can show the parent of a compound that is named as a salt. Where two headings read alike, the source gives them in different places. Bounds are passed on as bounds.

As a reminder, the MIC is the least concentration at which growth counts as inhibited. Regarding `O=c1cc(NCCCNCc2cc3c(Cl)cc(Cl)cc3[nH]2)[nH]c2ccccc12` [Example 76, 2-[3-(4,6-Dichloroindol-2-ylmethylamino)prop-1-ylamino]-1H-quinolin-4-one], the MIC in assay [1] (setting [3]) was less than 1 µg/mL; in the assay on M. Catarrhalis, 2 to 64 µg/mL (≈ 4.82 to 154 µM). For the compound `O=c1cc(NCCCNCc2cc(Cl)cc(Cl)c2Cl)[nH]c2ccccc12` [Example 45, 2-[3-(2,3,5-Trichliorobenzylamino)prop-1-ylamino]-1H-quinolin-4-one dihydrochloride], the MIC in assay [1] (setting [3]) is less than 1 µg/mL; in the assay on M. Catarrhalis, 2 to 64 µg/mL. `O=c1cc(NCCCNCc2cc(Br)cc(Br)c2)[nH]c2ccccc12` [Example 40, 2-[3-(3,5-Dibromobenzylamino)prop-1-ylamino]-1H-quinolin-4-one]: the minimum inhibitory concentration (MIC) in assay [1] (setting [3]) is less than 1 µg/mL; in the assay with M. Catarrhalis, 2 to 64 µg/mL (≈ 4.3 to 138 µM). For the compound `O=c1cc(NCCCNC2CCCc3c2[nH]c2ccccc32)[nH]c2ccccc12` (stereo not shown) [Example 64, 2-[3-(2,3,4,9-Tetrahydro-1H-carbazol-1-ylamino)prop-1-ylamino]-1H-quinolin-4-one], the “antibacterial activity against H. influenzae” value in the assay on H. influenzae is reported as “active”. Consider `O=c1cc(NCCCNCc2ccc(Cl)c(C(F)(F)F)c2)[nH]c2ccccc12` [Example 38, 2-[3-(4-Chloro-3-trifluoromethylbenzylamino)prop-1-ylamino]-1H-quinolin-4-one], for which the minimal inhibitory concentration (MIC) in assay [1] (setting [3]) was less than 1 µg/mL; in the assay on M. Catarrhalis, 2 to 64 µg/mL (≈ 4.88 to 156 µM). Take `O=c1cc(NC[C@H]2CCC[C@@H]2NCc2cc(Br)c(Br)s2)[nH]c2ccccc12` [Example 74, 2-{[(1R,2S)-2-(4,5-Dibromo-2-thiophenemethylamino)-cyclopentylmethyl]amino}-1H-quinolin-4-one]: the MIC in assay [1] (setting [3]) was less than 1 µg/mL; with M. Catarrhalis, 2 to 64 µg/mL (≈ 3.91 to 125 µM). Consider `O=c1cc(NC[C@H]2CCC[C@@H]2NCc2cc(Br)cc(Br)c2)[nH]c2ccccc12` [Example 73, 2-{[(1R,2S)-2-(3,5-Dibromobenzylamino)cyclopentyl-methyl]amino}-1H-quinolin-4-one], for which the values for the minimal inhibitory concentration (MIC) (in assay [1] (setting [3]); in the assay on M. Catarrhalis) were less than 1 µg/mL and 2 to 64 µg/mL (≈ 3.96 to 127 µM), respectively.

Regarding `O=c1cc(NCCCNC2CCc3c(Cl)sc(Cl)c32)[nH]c2ccccc12` (stereo not shown) [Example 47, 2-[3-(1,3-Dichloro-5,6-dihydro-4H-cyclopenta[c]thiophen-4-ylamino]prop-1-ylamino}-1H-quinolin-4-one], the minimal inhibitory concentration (MIC) was less than 1 µg/mL in assay [1] (setting [3]) and 2 to 64 µg/mL (≈ 4.9 to 157 µM) in the assay on M. Catarrhalis. For `O=c1cc(NCCCNCc2cc(Br)c(Br)c(Br)c2)[nH]c2ccccc12` [Example 42, 2-[3-(3,4,5-Tribromobenzylamino)prop-1-ylamino]-1H-quinolin-4-one], the MIC in assay [1] (setting [3]) was less than 1 µg/mL; in the assay with M. Catarrhalis, 2 to 64 µg/mL (≈ 3.68 to 118 µM).

As to `O=c1cc(NCCCNCc2cc(Cl)cc(Cl)c2OCCc2ccccc2)[nH]c2ccccc12` [Example 69, 2-[3-(3,5-Dichloro-2-phenethoxybenzylamino)propylamino]-1H-quinolin-4-one], the MIC in assay [1] (setting [3]) is less than 1 µg/mL; with M. Catarrhalis it was 2 to 64 µg/mL (≈ 4.03 to 129 µM).

In the case of `C/C(=C\C(=O)OCCCCCCCCC(=O)O)C[C@@H]1OC[C@H](C[C@@H]2O[C@H]2[C@@H](C)[C@H](C)O)[C@@H](O)[C@H]1O` [Mupirocin], in assay [2], the “inhibition of isoleucyl t-RNA synthetase” value is recorded as “inhibitor”. For `Cc1c(Br)cc(CNCCCNc2cc(=O)c3ccccc3[nH]2)cc1Br` [Example 41, 2-[3-(3,5-Dibromo-4-methylbenzylamino)prop-1-ylamino]-1H-quinolin-4-one], the results for the minimum inhibitory concentration (MIC) (in assay [1] (setting [3]); with M. Catarrhalis) were less than 1 µg/mL and 2 to 64 µg/mL (≈ 4.17 to 134 µM), respectively.

Take `CC(C)(C)OC(=O)COc1c(Cl)cc(Cl)cc1CNCCCNc1cc(=O)c2ccccc2[nH]1` [Example 67, 2-[3-(2-tert-Butoxycarbonylmethoxy-3,5-dichlorobenzylamino)prop-1-ylamino]-1H-quinolin-4-one]: the MIC in assay [1] (setting [3]) was less than 1 µg/mL; with M. Catarrhalis, 2 to 64 µg/mL (≈ 3.95 to 126 µM). For the compound `O=c1cc(NCC2CCCC2NCc2ccc(Cl)c(Cl)c2)[nH]c2ccccc12` (stereo not shown) [Example 60, 2-{[2-(3,4-Dichlorobenzylamino)cyclopentyl]methylamino}-1H-quinolin-4-one], the MIC is less than 1 µg/mL in assay [1] and 2 to 64 µg/mL (≈ 4.8 to 154 µM) in the assay on M. Catarrhalis. The corresponding values for `O=c1cc(NCCCNC2CCCc3c2cc(Cl)c(Cl)c3Cl)[nH]c2ccccc12` (stereo not shown) [Example 53, 2-[3-(5,6,7-Trichloro-1,2,3,4-tetrahydronaphth-1-ylamino)prop-1-ylamino]-1H-quinolin-4-one] are less than 1 µg/mL and 2 to 64 µg/mL (≈ 4.44 to 142 µM). In the same order, the values of `O=c1cc(NCCCNC2CCCc3c(Cl)cc(Cl)cc32)[nH]c2ccccc12` (stereo not shown) [Example 51, 2-[3-(5,7-Dichloro-1,2,3,4-tetrahydronaphth-1-ylamino)prop-1-ylamino]-1H-quinolin-4-one] are less than 1 µg/mL and 2 to 64 µg/mL (≈ 4.8 to 154 µM). `O=c1cc(NCCCNCc2cc(Br)cc(I)c2)[nH]c2ccccc12` [Example 43, 2-[3-(3-Bromo-5-iodobenzylamino)prop-1-ylamino]-1H-quinolin-4-one]: the figures for the MIC (in assay [1] (setting [3]); in the assay with M. Catarrhalis) were less than 1 µg/mL and 2 to 64 µg/mL (≈ 3.9 to 125 µM), respectively. `C=CCOc1c(Cl)cc(Cl)cc1CNCCCNc1cc(=O)c2ccccc2[nH]1` [Example 68, 2-[3-(2-Allyloxy-3,5-dichlorobenzylamino)prop-1-ylamino]-1H-quinolin-4-one]: the MIC is less than 1 µg/mL in assay [1] (setting [3]) and 2 to 64 µg/mL (≈ 4.63 to 148 µM) in the assay with M. Catarrhalis. With `Cl.O=c1cc(NCCCNCc2ccc(Cl)c(Cl)c2)[nH]c2ccccc12` [Example 18, 2-[3-(3,4-Dichlorobenzylamino)prop-1-ylamino]-1H-quinolin-4-one hydrochloride], the MIC in assay [1] is less than 1 µg/mL; with M. Catarrhalis, 2 to 64 µg/mL. In the same order, the values of `O=c1cc(NCCCNC2CCc3c(Cl)cc(Cl)cc32)[nH]c2ccccc12` (stereo not shown) [Example 55, 2-[3-(4,6-Dichloroindan-1-ylamino)prop-1-ylamino]-1H-quinolin-4-one] are less than 1 µg/mL and 2 to 64 µg/mL (≈ 4.97 to 159 µM). For `O=c1cc(NC[C@H]2CCC[C@@H]2NCc2ccc(Cl)c(Cl)c2)[nH]c2ccccc12` [Example 71, 2-{[(1R,2S)-2-(3,4-Dichlorobenzylamino)cyclopentylmethyl]amino}-1H-quinolin-4-one], the values for the MIC (in assay [1]; in the assay with M. Catarrhalis) were less than 1 µg/mL and 2 to 64 µg/mL (≈ 4.8 to 154 µM), respectively. Turning to `O=c1cc(NCCCNCc2cc(Br)c(Br)s2)[nH]c2ccccc12` [Example 37], the minimal inhibitory concentration (MIC) is less than 1 µg/mL in assay [1] (setting [3]) and 2 to 64 µg/mL (≈ 4.24 to 136 µM) in the assay with M. Catarrhalis. `O=c1cc(NCCCNCc2cc(Cl)cc(Cl)c2OCc2ccccc2)[nH]c2ccccc12` [Example 39, 2-[3-(2-Benzyloxy-3,5-dichlorobenzylamino)prop-1-ylamino]-1H-quinolin-4-one]: the MIC in assay [1] (setting [3]) is less than 1 µg/mL; with M. Catarrhalis, 2 to 64 µg/mL (≈ 4.15 to 133 µM). For `CCOc1c(Br)cc(Br)cc1CN[C@H]1CCC[C@@H]1CNc1cc(=O)c2ccccc2[nH]1` [Example 75, 2-{[(1R,2S)-2-(3,5-Dibromo-2-ethoxybenzylamino)cyclopentyl-methyl]amino}-1H-quinolin-4-one], the MIC in assay [1] (setting [3]) was less than 1 µg/mL; with M. Catarrhalis, 2 to 64 µg/mL (≈ 3.64 to 117 µM). In the case of `O=c1cc(NCCCNCc2cc(I)cc(I)c2)[nH]c2ccccc12` [Example 36, 2-[3-(3,5-Diiodobenzylamino)prop-1-ylamino]-1H-quinolin-4-one], the minimal inhibitory concentration (MIC) in assay [1] (setting [3]) is less than 1 µg/mL; in the assay on M. Catarrhalis, 2 to 64 µg/mL (≈ 3.58 to 114 µM). Turning to `Nc1c(Br)cc(Br)cc1CNCCCNc1cc(=O)c2ccccc2[nH]1` [Example 77, 2-[3-(2-Amino-3,5-dibromobenzylamino)prop-1-ylamino]-1H-quinolin-4-one], the MIC in assay [1] (setting [3]) was less than 1 µg/mL; in the assay on M. Catarrhalis it was 2 to 64 µg/mL (≈ 4.16 to 133 µM).

In the case of `CCOc1c(Br)cc(Br)cc1CNCCCNc1cc(=O)c2ccccc2[nH]1.Cl.Cl` [Example 46, 2-[3-(3,5-Dibromo-2-ethoxybenzylamino)prop-1-ylamino]-1H-quinolin-4-one dihydrochloride], the minimum inhibitory concentration (MIC) is less than 1 µg/mL in assay [1] (setting [3]) and 2 to 64 µg/mL in the assay on M. Catarrhalis.
